Here are results for four compounds from patent US9115093B2, “Substituted bicyclic dihydropyrimidinones and their use as inhibitors of neutrophil elastase activity” (Boehringer Ingelheim International GmbH, priority 2013, dated 2015).

The structures appear in SMILES notation. Where only a bound is given, the exact number is not on record here.

Series [1] in a line: Metabolic stability with human hepatocytes. It counts as in vitro ADME. The following applies: human hepatocyte suspension, 1 μM, scaled with well stirred model. The method, then: Assay for the Determination of Metabolic Stability with Human Hepatocytes
The metabolic degradation of the test compound is assayed in a human hepatocyte suspension. Human hepatocytes (typically cryopreserved) are incubated in an appropriate buffer system (e.g. Dulbecco's modified eagle medium plus 3.5 μg glucagon/500 mL, 2.5 mg insulin/500 mL and 3.75 mg/500 mL hydrocortison) containing 5% species serum. Following a (typically) […] preincubation in an incubator (37° C., 10% CO2), 5 μl of test compound solution (80 μM; from 2 mM stock solution in DMSO diluted 1:25 with medium) are added into 395 μl hepatocyte suspension (cell density in the range 0.25-5*10^6 cells/mL, typically 1*10^6 cells/mL; final concentration of test compound 1 μM, final DMSO concentration […]). The cells are incubated for six hours (incubator, orbital shaker) and samples (25 μl) are taken at 0, 0.5, 1, 2, 4 and 6 hours. Samples are transferred into acetonitrile and pelleted by centrifugation (5 min). The supernatant is transferred to a new 96-deepwell plate, evaporated under nitrogen and resuspended. The decline of parent compound is analyzed by LC-MS/MS.
The intrinsic clearance CL_[…] is calculated as follows: CL_[…]=Dose/AUC=(C0/CD)/(AUD+clast/k)*1′000/60 (C0: initial concentration in the incubation [μM], CD: cell density of vital cells [10^6 cells/mL], AUD: area under the data [μM*h], clast: concentration of last data point [μM], k: slope of the regression line for parent decline [h^−1])
The calculated in vitro hepatic intrinsic clearance can be scaled up to the intrinsic in vivo hepatic clearance and used to predict hepatic in vivo blood clearance (CL) by the use of a is liver model (well stirred model): CL_[…]_INVIVO [ml/min/kg]=(CL_[…] [μL/min/10^6 cells]* hepatocellularity[10^6 cells/g liver]*liver factor[g/kg bodyweight])/1′000 CL[ml/min/kg]=CL_[…]_INVIVO [ml/min/kg]*hepatic blood flow [ml/min/kg]/(CL_[…]_INVIVO [ml/min/kg]+hepatic blood flow [ml/min/kg]) Qh[%]=CL[ml/min/kg]/hepatic blood flow[ml/min/kg]) (Hepatocellularity, human: 120*10^6 cells/g liver; lver factor, human: 25.7 g/kg bodyweight; blood flow, human: 21 ml/(min*kg))
The predicted human hepatic in vivo blood clearance (CL) of selected compounds in the metabolic stability assay described above are listed in Table 16.

The target in the next series is T1, neutrophil elastase (Homo sapiens, UniProt P08246).
T1 sequence (P08246 30-247 limits assumed): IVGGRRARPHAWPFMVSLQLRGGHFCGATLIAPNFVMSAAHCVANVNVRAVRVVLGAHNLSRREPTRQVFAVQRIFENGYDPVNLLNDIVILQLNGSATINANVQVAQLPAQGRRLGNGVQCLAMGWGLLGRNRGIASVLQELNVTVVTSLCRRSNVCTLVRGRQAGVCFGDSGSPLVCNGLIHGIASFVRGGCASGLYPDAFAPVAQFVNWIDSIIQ
Nature of the series: Human Neutrophil Elastase Assay. Set-up: purchased Calbiochem 324681. The format is biochemical. The following applies: substrate MeOSuc-Ala-Ala-Pro-Val-AMC, pH 7.5, room temperature. In outline:
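Readout: AMC fluorescence (ex 380, em 460 nm) after 60 min room-temperature reaction with 250 nM MeOSuc-AAPV-AMC, following 15 min compound–enzyme preincubation. Buffer: Tris/NaCl pH 7.5, 0.01% BSA.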

As for `CS(=O)(=O)c1cc(C#N)ccc1[C@@H]1C2=C(CCCC2=O)N(c2cccc(C(F)(F)F)c2)C(=O)N1C(=O)NCC(F)F` [Example 75.7], the “CL (predicted human hepatic in vivo blood clearance)” value in series [1] was 0 L/h/kg. In addition, the IC50 at neutrophil elastase is less than 1 nM.

As for `CS(=O)(=O)CCNC(=O)N1C(=O)N(c2cccc(C(F)(F)F)c2)C2=C(C(=O)CCC2)C1c1ccc(C#N)cc1` (stereo not shown) [Example 39.19], the “CL (predicted human hepatic in vivo blood clearance)” value in series [1] was 0 L/h/kg. The same compound returned an IC50 against neutrophil elastase of less than 1 nM.

Take `CC(C)NC(=O)N1C(=O)N(c2cccc(C(F)(F)F)c2)C2=C(C(=O)CCC2)[C@H]1c1ccc(C#N)cc1S(C)(=O)=O` [Example 75.3]: the “CL (predicted human hepatic in vivo blood clearance)” value in series [1] was 0 L/h/kg. The compound further registered a 50% inhibitory concentration (IC50) on neutrophil elastase of less than 1 nM.

For `N#Cc1ccc(C2C3=C(CCCC3=O)N(c3cccc(C(F)(F)F)c3)C(=O)N2C(=O)NCCO)cc1` (stereo not shown) [Example 39.3], the concentration for half-maximal inhibition (IC50) against neutrophil elastase was less than 1 nM.

As a reminder, the IC50 is the concentration that gives 50% inhibition. High values mean a need for much substance, low ones inhibition by little substance.
